Results as given in PubChem BioAssay AID1963838 (Molecular Pharmacology Branch, DTP, NCI, 2024).

System: 855422-203-R-J1-PDC complex spheroid viability
Experiment: Anticancer human tumor 855422-203-R-J1-PDC patient-derived bladder carcinoma cell line growth inhibition [POLQ]
Settings: for IC50: curve of first compound; for viability, T/C: stronger effect = lower value
Procedure, shortened: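 Three-cell-type spheroids modelling solid tumor plus stroma served as the readout system; POL inhibitors were tested individually and in combination, concentration ranges set by clinical Cmax where known.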

[1] = second compound 0.0316 µM, first compound 0.0316 µM
[2] = second compound 0.0316 µM, first compound 0.1 µM
[3] = second compound 0.0316 µM, first compound 0.316 µM
[4] = second compound 0.0316 µM, first compound 1 µM
[5] = second compound 0.0316 µM, first compound 3.16 µM
[6] = second compound 0.0316 µM, first compound 10 µM
[7] = second compound 0.1 µM, first compound 0.0316 µM
[8] = second compound 0.1 µM, first compound 0.1 µM
[9] = second compound 0.1 µM, first compound 0.316 µM
[10] = second compound 0.1 µM, first compound 1 µM
[11] = second compound 0.1 µM, first compound 3.16 µM
[12] = second compound 0.1 µM, first compound 10 µM
[13] = second compound 0.316 µM, first compound 0.0316 µM
[14] = second compound 0.316 µM, first compound 0.1 µM
[15] = second compound 0.316 µM, first compound 0.316 µM
[16] = second compound 0.316 µM, first compound 1 µM
[17] = second compound 0.316 µM, first compound 3.16 µM
[18] = second compound 0.316 µM, first compound 10 µM
[19] = second compound 1 µM, first compound 0.0316 µM
[20] = second compound 1 µM, first compound 0.1 µM
[21] = second compound 1 µM, first compound 0.316 µM
[22] = second compound 1 µM, first compound 1 µM
[23] = second compound 1 µM, first compound 3.16 µM
[24] = second compound 1 µM, first compound 10 µM
[25] = second compound 3.16 µM, first compound 0.0316 µM
[26] = second compound 3.16 µM, first compound 0.1 µM
[27] = second compound 3.16 µM, first compound 0.316 µM
[28] = second compound 3.16 µM, first compound 1 µM
[29] = second compound 3.16 µM, first compound 3.16 µM
[30] = second compound 3.16 µM, first compound 10 µM
[31] = second compound 10 µM, first compound 0.0316 µM
[32] = second compound 10 µM, first compound 0.1 µM
[33] = second compound 10 µM, first compound 0.316 µM
[34] = second compound 10 µM, first compound 1 µM
[35] = second compound 10 µM, first compound 3.16 µM
[36] = second compound 10 µM, first compound 10 µM
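Further: spheroids exposed to compounds for seven days before readout.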

## C#Cc1c(F)ccc2cc(O)cc(-c3ncc4c(N5CC6CCC(C5)N6)nc(OCC56CCCN5CC(F)C6)nc4c3F)c12 (stereo not drawn) + Nc1ccc(C#CCN(C(=O)Cc2ncc(C(F)(F)F)cc2C(F)(F)F)c2ccc(F)cc2)nn1
Second compound 0.0316 µM
  IC50: > 10 µM
Second compound 0.1 µM
  IC50: > 10 µM
Second compound 0.316 µM
  IC50: > 10 µM
Second compound 1 µM
  IC50: > 10 µM
Second compound 3.16 µM
  IC50: > 10 µM
Second compound 10 µM
  IC50: > 10 µM
[1]
  viability, T/C: 110%
[2]
  viability, T/C: 110%
[3]
  viability, T/C: 102%
[4]
  viability, T/C: 98%
[5]
  viability, T/C: 110%
[6]
  viability, T/C: 109%
[7]
  viability, T/C: 96.4%
[8]
  viability, T/C: 106%
[9]
  viability, T/C: 85.6%
[10]
  viability, T/C: 101%
[11]
  viability, T/C: 138%
[12]
  viability, T/C: 102%
[13]
  viability, T/C: 100%
[14]
  viability, T/C: 120%
[15]
  viability, T/C: 124%
[16]
  viability, T/C: 111%
[17]
  viability, T/C: 120%
[18]
  viability, T/C: 115%
[19]
  viability, T/C: 107%
[20]
  viability, T/C: 98%
[21]
  viability, T/C: 107%
[22]
  viability, T/C: 109%
[23]
  viability, T/C: 113%
[24]
  viability, T/C: 99%
[25]
  viability, T/C: 92.5%
[26]
  viability, T/C: 99%
[27]
  viability, T/C: 97.9%
[28]
  viability, T/C: 97.6%
[29]
  viability, T/C: 108%
[30]
  viability, T/C: 106%
[31]
  viability, T/C: 103%
[32]
  viability, T/C: 94.3%
[33]
  viability, T/C: 90.7%
[34]
  viability, T/C: 100%
[35]
  viability, T/C: 103%
[36]
  viability, T/C: 91.3%

## C=CC(=O)N1CCN(c2nc(=O)n(-c3c(C)ccnc3C(C)C)c3nc(-c4c(O)cccc4F)c(F)cc23)C(C)C1 (stereo not drawn) + Nc1ccc(C#CCN(C(=O)Cc2ncc(C(F)(F)F)cc2C(F)(F)F)c2ccc(F)cc2)nn1
Second compound 0.0316 µM
  IC50: > 10 µM
Second compound 0.1 µM
  IC50: > 10 µM
Second compound 0.316 µM
  IC50: > 10 µM
Second compound 1 µM
  IC50: > 10 µM
Second compound 3.16 µM
  IC50: > 10 µM
Second compound 10 µM
  IC50: > 10 µM
[1]
  viability, T/C: 101%
[2]
  viability, T/C: 116%
[3]
  viability, T/C: 120%
[4]
  viability, T/C: 105%
[5]
  viability, T/C: 144%
[6]
  viability, T/C: 214%
[7]
  viability, T/C: 99%
[8]
  viability, T/C: 137%
[9]
  viability, T/C: 107%
[10]
  viability, T/C: 121%
[11]
  viability, T/C: 159%
[12]
  viability, T/C: 235%
[13]
  viability, T/C: 126%
[14]
  viability, T/C: 129%
[15]
  viability, T/C: 121%
[16]
  viability, T/C: 122%
[17]
  viability, T/C: 146%
[18]
  viability, T/C: 176%
[19]
  viability, T/C: 99.4%
[20]
  viability, T/C: 113%
[21]
  viability, T/C: 92.2%
[22]
  viability, T/C: 158%
[23]
  viability, T/C: 120%
[24]
  viability, T/C: 173%
[25]
  viability, T/C: 103%
[26]
  viability, T/C: 121%
[27]
  viability, T/C: 97.2%
[28]
  viability, T/C: 129%
[29]
  viability, T/C: 129%
[30]
  viability, T/C: 175%
[31]
  viability, T/C: 109%
[32]
  viability, T/C: 108%
[33]
  viability, T/C: 99.1%
[34]
  viability, T/C: 117%
[35]
  viability, T/C: 113%
[36]
  viability, T/C: 124%

## CC(C)n1c(=O)n(C)c2cnc3cc(F)c(-c4ccc(OCCCN5CCCCC5)nc4)cc3c21 + Nc1ccc(C#CCN(C(=O)Cc2ncc(C(F)(F)F)cc2C(F)(F)F)c2ccc(F)cc2)nn1
Second compound 0.0316 µM
  IC50: > 10 µM
Second compound 0.1 µM
  IC50: > 10 µM
Second compound 0.316 µM
  IC50: > 10 µM
Second compound 1 µM
  IC50: > 10 µM
Second compound 3.16 µM
  IC50: > 10 µM
Second compound 10 µM
  IC50: > 10 µM
[1]
  viability, T/C: 100%
[2]
  viability, T/C: 123%
[3]
  viability, T/C: 110%
[4]
  viability, T/C: 94.2%
[5]
  viability, T/C: 99.9%
[6]
  viability, T/C: 107%
[7]
  viability, T/C: 99.4%
[8]
  viability, T/C: 140%
[9]
  viability, T/C: 97.2%
[10]
  viability, T/C: 94.4%
[11]
  viability, T/C: 100%
[12]
  viability, T/C: 93.5%
[13]
  viability, T/C: 96.5%
[14]
  viability, T/C: 128%
[15]
  viability, T/C: 96.3%
[16]
  viability, T/C: 99.3%
[17]
  viability, T/C: 97%
[18]
  viability, T/C: 96.1%
[19]
  viability, T/C: 91.8%
[20]
  viability, T/C: 120%
[21]
  viability, T/C: 95.1%
[22]
  viability, T/C: 99.2%
[23]
  viability, T/C: 101%
[24]
  viability, T/C: 91.3%
[25]
  viability, T/C: 97.9%
[26]
  viability, T/C: 148%
[27]
  viability, T/C: 98%
[28]
  viability, T/C: 106%
[29]
  viability, T/C: 103%
[30]
  viability, T/C: 92.1%
[31]
  viability, T/C: 104%
[32]
  viability, T/C: 101%
[33]
  viability, T/C: 91.3%
[34]
  viability, T/C: 100%
[35]
  viability, T/C: 101%
[36]
  viability, T/C: 82.8%

## CC1COCCN1c1cc(-c2ccnn2C)c2ccnc(-c3ccn[nH]3)c2n1 (stereo not drawn) + Nc1ccc(C#CCN(C(=O)Cc2ncc(C(F)(F)F)cc2C(F)(F)F)c2ccc(F)cc2)nn1
Second compound 0.0316 µM
  IC50: 0.255 µM
Second compound 0.1 µM
  IC50: 0.275 µM
Second compound 0.316 µM
  IC50: 0.253 µM
Second compound 1 µM
  IC50: 0.203 µM
Second compound 3.16 µM
  IC50: 0.234 µM
Second compound 10 µM
  IC50: 0.202 µM
[1]
  viability, T/C: 124%
[2]
  viability, T/C: 124%
[3]
  viability, T/C: 33.2%
[4]
  viability, T/C: 16%
[5]
  viability, T/C: 13.6%
[6]
  viability, T/C: 12.8%
[7]
  viability, T/C: 118%
[8]
  viability, T/C: 159%
[9]
  viability, T/C: 37.7%
[10]
  viability, T/C: 17.4%
[11]
  viability, T/C: 11.8%
[12]
  viability, T/C: 11.9%
[13]
  viability, T/C: 128%
[14]
  viability, T/C: 140%
[15]
  viability, T/C: 30%
[16]
  viability, T/C: 13.2%
[17]
  viability, T/C: 11.3%
[18]
  viability, T/C: 10.5%
[19]
  viability, T/C: 119%
[20]
  viability, T/C: 92.5%
[21]
  viability, T/C: 23.3%
[22]
  viability, T/C: 15.3%
[23]
  viability, T/C: 12.6%
[24]
  viability, T/C: 8.88%
[25]
  viability, T/C: 102%
[26]
  viability, T/C: 128%
[27]
  viability, T/C: 27.1%
[28]
  viability, T/C: 15.1%
[29]
  viability, T/C: 10.3%
[30]
  viability, T/C: 8.61%
[31]
  viability, T/C: 119%
[32]
  viability, T/C: 88.8%
[33]
  viability, T/C: 25.2%
[34]
  viability, T/C: 12.9%
[35]
  viability, T/C: 11.1%
[36]
  viability, T/C: 10.7%
